Data: patent publication US20250064789A1, “KETOAMIDE DERIVATIVES AND PHARMACEUTICAL USES THEREOF” (priority 2022, published 2025)

target: recombinant SARS-CoV-2 M^pro (Severe acute respiratory syndrome coronavirus 2 (2019-nCoV) (SARS-CoV-2), UniProt P0DTD1); test: Inhibition of SARS-CoV-2 M^pro enzyme activity (fluorescent substrate assay); format: biochemical; details: inhibition of SARS-CoV-2 M^pro enzyme activity; values in nM; read-out: IC50

`O=C(CC1CCC(F)(F)CC1)NCC(=O)N[C@H](Cc1ccccc1)C(=O)C(=O)NCc1nccs1` [Compound 390] and `O=C(CC1CCC(F)(F)CC1)NCC(=O)N[C@H](Cc1ccccc1)C(=O)C(=O)NCc1cscn1` [Compound 422] are within 1.5-fold of each other in IC50: 21.8 ± 1.1 nM for the first, 17.1 ± 0.1 nM for the second.

Going from `O=C(CNC(=O)C1CCC(F)(F)C1)N[C@H](Cc1ccccc1)C(=O)C(=O)NCc1nccs1` (some centres unmarked) [Compound 391] to `O=C(CNC(=O)C1CCC(F)(F)CC1)N[C@H](Cc1ccccc1)C(=O)C(=O)NCc1cscn1` [Compound 421], the IC50 falls from 109 ± 8.6 nM to 20.7 ± 0.5 nM (5.3-fold).

Going from `COC[C@@H](NC(=O)C1CCC(F)(F)CC1)C(=O)N[C@H](Cc1ccccc1)C(=O)C(=O)NCc1nccs1` [Compound 393] to `COC[C@@H](NC(=O)CC1CCC(F)(F)CC1)C(=O)N[C@H](Cc1ccccc1)C(=O)C(=O)NCc1nccs1` [Compound 394], the IC50 falls from 88.2 ± 5.6 nM to 12.4 ± 1.4 nM (7.1-fold).

`COC[C@@H](NC(=O)CC1CC1(F)F)C(=O)N[C@H](Cc1ccccc1)C(=O)C(=O)NCc1nccs1` (some centres unmarked) [Compound 396] and `COC[C@@H](NC(=O)[C@H]1CC[C@@H](F)CC1)C(=O)N[C@H](Cc1ccccc1)C(=O)C(=O)NCc1nccs1` [Compound 399] are within 1.5-fold of each other in IC50: 48.8 ± 0.4 nM for the first, 32.8 ± 1.5 nM for the second.

Compared with `O=C(NCc1nccs1)C(=O)[C@@H](Cc1ccccc1)NC(=O)[C@H]1CC(F)(F)CN1C(=O)CC1CCC(F)(F)CC1` [Compound 401], `O=C(NCc1nccs1)C(=O)[C@@H](Cc1ccccc1)NC(=O)[C@H]1CC(F)(F)CN1C(=O)C1CCC(F)(F)C1` (some centres unmarked) [Compound 404] is 2.5-fold higher in IC50: 19 ± 0.1 nM for the first, 47.7 ± 1 nM for the second. The first is the more potent here.

`O=C(NCc1nccs1)C(=O)[C@@H](Cc1ccccc1)NC(=O)[C@H]1CC(F)(F)CN1C(=O)C1CCCC(F)(F)C1` (some centres unmarked) [Compound 403] and `O=C(NCc1nccs1)C(=O)[C@@H](Cc1ccccc1)NC(=O)[C@H]1COCCN1C(=O)C1CCCC(F)(F)C1` (some centres unmarked) [Compound 410] are within 1.5-fold of each other in IC50: 20.4 ± 2.4 nM for the first, 25.3 ± 1.7 nM for the second.

First: O=C(NCc1nccs1)C(=O)[C@@H](Cc1ccccc1)NC(=O)[C@H]1CC(F)(F)CN1C(=O)CC1CC1(F)F (some centres unmarked) [Compound 405]
Second: O=C(NCc1nccs1)C(=O)[C@@H](Cc1ccccc1)NC(=O)[C@H]1COCCN1C(=O)CC1CC1(F)F (some centres unmarked) [Compound 413]
The IC50 of the first is 3.6-fold higher: 104 ± 1.7 nM for the first, 29.1 ± 2.5 nM for the second. The second is the more potent here.

Compared with `O=C(NCc1nccs1)C(=O)[C@@H](Cc1ccccc1)NC(=O)[C@H]1CC(F)(F)CN1C(=O)[C@@H]1C[C@@H]2[C@H](C1)C2(F)F` [Compound 406], `O=C(NCc1nccs1)C(=O)[C@@H](Cc1ccccc1)NC(=O)[C@H]1COCCN1C(=O)[C@@H]1C[C@@H]2[C@H](C1)C2(F)F` [Compound 412] is 2.1-fold lower in IC50: 52.7 ± 1.1 nM for the first, 24.8 ± 0.8 nM for the second. The second is the more potent here.

Compared with `O=C(NCc1nccs1)C(=O)[C@@H](Cc1ccccc1)NC(=O)[C@H]1COCCN1C(=O)C1CCC(F)(F)CC1` [Compound 407], `O=C(NCc1nccs1)C(=O)[C@@H](Cc1ccccc1)NC(=O)[C@H]1COCCN1C(=O)C1CCC(F)(F)C1` (some centres unmarked) [Compound 409] is 1.7-fold higher in IC50: 21.4 ± 0.3 nM for the first, 36.6 ± 0.4 nM for the second. The first is the more potent here.

`O=C(NCc1nccs1)C(=O)[C@@H](Cc1ccccc1)NC(=O)[C@H]1COCCN1C(=O)CC1CC(F)(F)C1` [Compound 408] and `O=C(NCc1nccs1)C(=O)[C@@H](Cc1ccccc1)NC(=O)[C@H]1COCCN1C(=O)CC1CCC(F)(F)CC1` [Compound 411] are within error of each other in IC50: 14.9 ± 0.5 nM for the first, 15.5 ± 0.1 nM for the second.

Compared with `C[C@@H](NC(=O)N1CCC(F)(F)CC1)C(=O)N[C@H](Cc1ccccc1)C(=O)C(=O)NCc1nccs1` [Compound 414], `C[C@@H](NC(=O)CC1CCC(F)(F)CC1)C(=O)N[C@H](Cc1ccccc1)C(=O)C(=O)NCc1cscn1` [Compound 419] is 9.8-fold lower in IC50: 95.9 ± 9.7 nM for the first, 9.8 ± 0.1 nM for the second. The second is the more potent here.

First: C[C@@H](NC(=O)C1CCCC(F)(F)C1)C(=O)N[C@H](Cc1ccccc1)C(=O)C(=O)NCc1cscn1 (some centres unmarked) [Compound 416]
Second: C[C@@H](NC(=O)[C@@H]1C[C@@H]2[C@H](C1)C2(F)F)C(=O)N[C@H](Cc1ccccc1)C(=O)C(=O)NCc1cscn1 [Compound 420]
The IC50 of the first is 1.8-fold higher: 19 ± 0.4 nM for the first, 10.8 ± 0.7 nM for the second. The second is the more potent here.

Compared with `O=C(CNC(=O)[C@@H]1C[C@@H]2[C@H](C1)C2(F)F)N[C@H](Cc1ccccc1)C(=O)C(=O)NCc1cscn1` [Compound 424], `O=C(CC1CC1(F)F)NCC(=O)N[C@H](Cc1ccccc1)C(=O)C(=O)NCc1cscn1` (some centres unmarked) [Compound 425] is 1.8-fold higher in IC50: 20.7 ± 0.2 nM for the first, 36.5 ± 0.3 nM for the second. The first is the more potent here.
